Measured values reported in ChEMBL document CHEMBL1201862, “PubChem BioAssay data set” (2004).
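Tested at 5 concentrations; 48 h exposure; 96-well plates; endpoints linearly interpolated, else capped at highest concentration. At the GI50, growth is halved.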 Active and inactive are the calls of the source. Rule as the data show it: active = GI50 up to about 1.1 µM and inactive = higher.

What was measured:
Assay in all cases: growth of human tumour cells (NCI), 48 h
HL-60 = test system: HL-60
ACHN = test system: ACHN
OVCAR-3 = test system: OVCAR-3
NCI-H23 = test system: NCI-H23
SNB-75 = test system: SNB-75
HCC 2998 = test system: HCC 2998
K562 = test system: K562
HCT-15 = test system: HCT-15
NCI-H460 = test system: NCI-H460
SF-539 = test system: SF-539
UACC-257 = test system: UACC-257
SR = test system: SR
OVCAR-8 = test system: OVCAR-8
MDA-MB-231 = test system: MDA-MB-231
SK-MEL-2 = test system: SK-MEL-2
SF-295 = test system: SF-295
OVCAR-5 = test system: OVCAR-5
A498 = test system: A498
BT-549 = test system: BT-549
RPMI-8226 = test system: RPMI-8226

CC(=O)NC1(c2cc3ccccc3s2)CCCCCC1
GI50 (HL-60): 23.4 µM (inactive) | GI50 (ACHN): 43.9 µM (inactive) | GI50 (OVCAR-3): 21.6 µM (inactive) | GI50 (NCI-H23): 35.2 µM (inactive) | GI50 (SNB-75): 31 µM (inactive) | GI50 (HCC 2998): 61.2 µM (inactive) | GI50 (K562): 23.8 µM (inactive) | GI50 (HCT-15): 33.7 µM | GI50 (NCI-H460): 36.6 µM (inactive) | GI50 (SF-539): 51.5 µM (inactive) | GI50 (UACC-257): 40 µM (inactive) | GI50 (SR): 28.4 µM (inactive) | GI50 (OVCAR-8): 50.9 µM (inactive) | GI50 (MDA-MB-231): 40.4 µM (inactive) | GI50 (SK-MEL-2): 33 µM (inactive) | GI50 (SF-295): 33.7 µM (inactive) | GI50 (OVCAR-5): 36.7 µM (inactive) | GI50 (A498): 43.4 µM (inactive) | GI50 (BT-549): 58.9 µM (inactive)

CC(C)(SCc1ccccc1)C(N)C(=O)O (stereo unspecified)
GI50 (HL-60): > 100 µM (inactive) | GI50 (ACHN): > 100 µM (inactive) | GI50 (OVCAR-3): > 100 µM (inactive) | GI50 (NCI-H23): > 100 µM (inactive) | GI50 (SNB-75): > 100 µM (inactive) | GI50 (RPMI-8226): > 100 µM (inactive) | GI50 (K562): > 100 µM (inactive) | GI50 (HCT-15): > 100 µM | GI50 (NCI-H460): > 100 µM (inactive) | GI50 (UACC-257): > 100 µM (inactive) | GI50 (SR): > 100 µM (inactive) | GI50 (OVCAR-8): > 100 µM (inactive) | GI50 (MDA-MB-231): > 100 µM (inactive) | GI50 (SK-MEL-2): > 100 µM (inactive) | GI50 (SF-295): > 100 µM (inactive) | GI50 (OVCAR-5): > 100 µM (inactive) | GI50 (A498): > 100 µM (inactive) | GI50 (BT-549): > 100 µM (inactive)

O=[N+]([O-])/C=C/c1cc2ccccc2[nH]1
GI50 (HL-60): 4.33 µM (inactive) | GI50 (ACHN): 17 µM (inactive) | GI50 (OVCAR-3): 14.8 µM (inactive) | GI50 (NCI-H23): 13.1 µM (inactive) | GI50 (SNB-75): 15.2 µM (inactive) | GI50 (RPMI-8226): 2.96 µM (inactive) | GI50 (K562): 13.8 µM (inactive) | GI50 (HCT-15): 21.5 µM | GI50 (NCI-H460): 14.6 µM (inactive) | GI50 (SF-539): 9.84 µM (inactive) | GI50 (UACC-257): 15.4 µM (inactive) | GI50 (SR): 5.06 µM (inactive) | GI50 (OVCAR-8): 21.6 µM (inactive) | GI50 (MDA-MB-231): 18.2 µM (inactive) | GI50 (SK-MEL-2): 19.3 µM (inactive) | GI50 (SF-295): 19.5 µM (inactive) | GI50 (OVCAR-5): 19.5 µM (inactive) | GI50 (A498): 19.3 µM (inactive) | GI50 (BT-549): 15.6 µM (inactive)

Nc1nc(Cl)c(N)c(NCC2(CO)CC(CCCc3ccccc3)C2)n1 (stereo unspecified)
GI50 (HL-60): 0.117 µM (active) | GI50 (ACHN): 35.6 µM (inactive) | GI50 (OVCAR-3): 19.1 µM (inactive) | GI50 (SNB-75): 20.4 µM (inactive) | GI50 (HCC 2998): 38.2 µM (inactive) | GI50 (K562): 10.8 µM (inactive) | GI50 (HCT-15): 51.5 µM | GI50 (NCI-H460): 33.7 µM (inactive) | GI50 (SF-539): 30 µM (inactive) | GI50 (UACC-257): 7.67 µM (inactive) | GI50 (SR): 23.6 µM (inactive) | GI50 (MDA-MB-231): 41.5 µM (inactive) | GI50 (SK-MEL-2): 0.137 µM (active) | GI50 (SF-295): 14 µM (inactive) | GI50 (OVCAR-5): > 100 µM (inactive) | GI50 (A498): 15.5 µM (inactive) | GI50 (BT-549): 15.5 µM (inactive)

O=[N+]([O-])c1ccc(O)c(/C=N/c2nc(-c3ccccc3)cs2)c1
GI50 (HL-60): 34.2 µM (inactive) | GI50 (ACHN): 31.4 µM (inactive) | GI50 (OVCAR-3): 35.2 µM (inactive) | GI50 (NCI-H23): 20.3 µM (inactive) | GI50 (SNB-75): 23 µM (inactive) | GI50 (RPMI-8226): 8.95 µM (inactive) | GI50 (HCC 2998): 24.8 µM (inactive) | GI50 (K562): 2.4 µM (inactive) | GI50 (HCT-15): 29.1 µM | GI50 (NCI-H460): 38.1 µM (inactive) | GI50 (UACC-257): 45.9 µM (inactive) | GI50 (SR): 3.03 µM (inactive) | GI50 (OVCAR-8): 25.9 µM (inactive) | GI50 (MDA-MB-231): 33.3 µM (inactive) | GI50 (SK-MEL-2): 24.4 µM (inactive) | GI50 (SF-295): 33.1 µM (inactive) | GI50 (OVCAR-5): 31.6 µM (inactive) | GI50 (A498): > 93.5 µM (inactive) | GI50 (BT-549): 17.1 µM (inactive)

CC(C)(C)c1cc(C2=NN(c3ccccc3)C(c3ccccc3)C2)cc(C(C)(C)C)c1O (stereo unspecified)
GI50 (HL-60): 12.1 µM (inactive) | GI50 (ACHN): > 100 µM (inactive) | GI50 (OVCAR-3): 54.8 µM (inactive) | GI50 (NCI-H23): > 100 µM (inactive) | GI50 (SNB-75): > 100 µM (inactive) | GI50 (RPMI-8226): > 100 µM (inactive) | GI50 (K562): > 100 µM (inactive) | GI50 (HCT-15): > 100 µM | GI50 (NCI-H460): > 100 µM (inactive) | GI50 (SF-539): > 100 µM (inactive) | GI50 (UACC-257): 35.2 µM (inactive) | GI50 (SR): 29.3 µM (inactive) | GI50 (OVCAR-8): > 100 µM (inactive) | GI50 (MDA-MB-231): > 100 µM (inactive) | GI50 (SK-MEL-2): > 100 µM (inactive) | GI50 (SF-295): > 100 µM (inactive) | GI50 (OVCAR-5): > 100 µM (inactive) | GI50 (A498): > 100 µM (inactive) | GI50 (BT-549): > 100 µM (inactive)
